Data on 8 compounds can be found in ChEMBL document CHEMBL1133474, “Role of hydrophobic interactions in binding S-(N-aryl/alkyl-N-hydroxycarbamoyl)glutathiones to the active site of the antitumor target enzyme glyoxalase I” (J Med Chem, 2000).

The structures appear in SMILES notation.

In the assay the target is Lactoylglutathione lyase (Homo sapiens, UniProt Q04760). The assay is described as follows: Binding affinity for Glyoxalase I.
Chain of Lactoylglutathione lyase (Q04760 whole entry): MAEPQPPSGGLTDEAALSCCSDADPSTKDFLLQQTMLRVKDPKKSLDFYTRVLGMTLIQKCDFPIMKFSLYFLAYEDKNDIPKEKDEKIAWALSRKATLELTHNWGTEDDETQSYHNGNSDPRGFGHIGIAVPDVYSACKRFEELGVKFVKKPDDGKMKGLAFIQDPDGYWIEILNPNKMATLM

Consider `CN(O)C(=O)SC[C@H](NC(=O)CC[C@H](N)C(=O)O)C(=O)NCC(=O)O`, for which the Ki is 1700 nM.
Next, `CCCCCN(O)C(=O)SC[C@H](NC(=O)CC[C@H](N)C(=O)O)C(=O)NCC(=O)O`: 170 nM.
Next, `CCN(O)C(=O)SC[C@H](NC(=O)CC[C@H](N)C(=O)O)C(=O)NCC(=O)O`: 1180 nM; `N[C@@H](CCC(=O)N[C@@H](CSC(=O)NO)C(=O)NCC(=O)O)C(=O)O`: 183000 nM.
For the compound `CCCCN(O)C(=O)SC[C@H](NC(=O)CC[C@H](N)C(=O)O)C(=O)NCC(=O)O`, the Ki is 180 nM.
Next, `CCCN(O)C(=O)SC[C@H](NC(=O)CC[C@H](N)C(=O)O)C(=O)NCC(=O)O`: 800 nM.
Next, `CCCCCCN(O)C(=O)SC[C@H](NC(=O)CC[C@H](N)C(=O)O)C(=O)NCC(=O)O`: 16 nM; `CCCCCCCN(O)C(=O)SC[C@H](NC(=O)CC[C@H](N)C(=O)O)C(=O)NCC(=O)O`: 18 nM.
